# Experimental data reported in ChEMBL document CHEMBL1136454, “Synthesis and biological activity of N-Acylated ornithine analogues of daptomycin” (Bioorg Med Chem Lett, 2003).
# Experiments:
# Assay type in all cases: functional
# Enterococcus faecium = assay: Antibacterial activity against Enterococcus faecium ATCC 6569
# Enterococcus faecalis = assay: Antibacterial activity against Enterococcus faecalis ATCC 49452
# Staphylococcus aureus [1] = assay: Antibacterial activity against methicillin resistant Staphylococcus aureus ATCC 43300 (MRSA)
# Staphylococcus aureus [2] = assay: Antibacterial activity against methicillin susceptible Staphylococcus aureus ATCC 29213 (MSSA )
# Mus musculus = assay: Antibacterial activity was determined by protection from death of mice infected by methicillin resistant Staphylococcus aureus (MRSA) upon sc administration of compound after 4 hr of post infection; conditions: read-out: PD50
structure (smiles),measurement,setting,value
CCCCCCCCCC(=O)N[C@@H](Cc1c[nH]c2ccccc12)C(=O)N[C@H](CC(N)=O)C(=O)N[C@@H](CC(=O)O)C(=O)N[C@@H]1C(=O)NCC(=O)N[C@@H](CCCNC(=O)CC(C)(C)C(=O)O)C(=O)N[C@@H](CC(=O)O)C(=O)N[C@H](C)C(=O)N[C@@H](CC(=O)O)C(=O)NCC(=O)N[C@H](CO)C(=O)N[C@@H]([C@H](C)CC(=O)O)C(=O)N[C@@H](CC(=O)c2ccccc2N)C(=O)O[C@@H]1C,MIC,Enterococcus faecium,50 µg/mL
same,MIC,Enterococcus faecalis,50 µg/mL
same,MIC,Staphylococcus aureus [1],12.5 µg/mL
same,MIC,Staphylococcus aureus [2],12.5 µg/mL
CCCCCCCCCC(=O)N[C@@H](Cc1c[nH]c2ccccc12)C(=O)N[C@H](CC(N)=O)C(=O)N[C@@H](CC(=O)O)C(=O)N[C@@H]1C(=O)NCC(=O)N[C@@H](CCCNC(=O)c2cccc(OC)c2N)C(=O)N[C@@H](CC(=O)O)C(=O)N[C@H](C)C(=O)N[C@@H](CC(=O)O)C(=O)NCC(=O)N[C@H](CO)C(=O)N[C@@H]([C@H](C)CC(=O)O)C(=O)N[C@@H](CC(=O)c2ccccc2N)C(=O)O[C@@H]1C,MIC,Enterococcus faecium,10 µg/mL
same,MIC,Enterococcus faecalis,10 µg/mL
same,MIC,Staphylococcus aureus [2],0.63 µg/mL
CCCCCCCCCC(=O)N[C@@H](Cc1c[nH]c2ccccc12)C(=O)N[C@H](CC(N)=O)C(=O)N[C@@H](CC(=O)O)C(=O)N[C@@H]1C(=O)NCC(=O)N[C@@H](CCCNC(=O)c2cccc(C)c2N)C(=O)N[C@@H](CC(=O)O)C(=O)N[C@H](C)C(=O)N[C@@H](CC(=O)O)C(=O)NCC(=O)N[C@H](CO)C(=O)N[C@@H]([C@H](C)CC(=O)O)C(=O)N[C@@H](CC(=O)c2ccccc2N)C(=O)O[C@@H]1C,MIC,Enterococcus faecium,10 µg/mL
same,MIC,Enterococcus faecalis,10 µg/mL
same,MIC,Staphylococcus aureus [2],0.63 µg/mL
CCCCCCCCCC(=O)N[C@@H](Cc1c[nH]c2ccccc12)C(=O)N[C@@H](CC(N)=O)C(=O)N[C@@H](CC(=O)O)C(=O)N[C@@H]1C(=O)NCC(=O)N[C@@H](CCCNC(=O)C(N)Cc2c[nH]c3ccccc23)C(=O)N[C@@H](CC(=O)O)C(=O)N[C@H](C)C(=O)N[C@@H](CC(=O)O)C(=O)NCC(=O)N[C@H](CO)C(=O)N[C@@H]([C@H](C)CC(=O)O)C(=O)N[C@@H](CC(=O)c2ccccc2N)C(=O)O[C@@H]1C (some centres undefined),MIC,Enterococcus faecium,6.25 µg/mL
same,MIC,Enterococcus faecalis,12.5 µg/mL
same,MIC,Staphylococcus aureus [1],1.56 µg/mL
same,MIC,Staphylococcus aureus [2],1.56 µg/mL
CCCCCCCCCC(=O)N[C@@H](Cc1c[nH]c2ccccc12)C(=O)N[C@H](CC(N)=O)C(=O)N[C@@H](CC(=O)O)C(=O)N[C@@H]1C(=O)NCC(=O)N[C@@H](CCCNC(=O)c2cc(O)ccc2N)C(=O)N[C@@H](CC(=O)O)C(=O)N[C@H](C)C(=O)N[C@@H](CC(=O)O)C(=O)NCC(=O)N[C@H](CO)C(=O)N[C@@H]([C@H](C)CC(=O)O)C(=O)N[C@@H](CC(=O)c2ccccc2N)C(=O)O[C@@H]1C,MIC,Enterococcus faecium,10 µg/mL
same,MIC,Enterococcus faecalis,10 µg/mL
same,MIC,Staphylococcus aureus [2],1.25 µg/mL
CCCCCCCCCC(=O)N[C@@H](Cc1c[nH]c2ccccc12)C(=O)N[C@H](CC(N)=O)C(=O)N[C@@H](CC(=O)O)C(=O)N[C@@H]1C(=O)NCC(=O)N[C@@H](CCCNC(=O)c2c(N)ccc3ccccc23)C(=O)N[C@@H](CC(=O)O)C(=O)N[C@H](C)C(=O)N[C@@H](CC(=O)O)C(=O)NCC(=O)N[C@H](CO)C(=O)N[C@@H]([C@H](C)CC(=O)O)C(=O)N[C@@H](CC(=O)c2ccccc2N)C(=O)O[C@@H]1C,MIC,Enterococcus faecium,6.25 µg/mL
same,MIC,Enterococcus faecalis,6.25 µg/mL
same,ED50,Mus musculus,2.1 mg/kg
same,MIC,Staphylococcus aureus [1],0.78 µg/mL
same,MIC,Staphylococcus aureus [2],0.78 µg/mL
CCCCCCCCCC(=O)N[C@@H](Cc1c[nH]c2ccccc12)C(=O)N[C@@H](CC(N)=O)C(=O)N[C@@H](CC(=O)O)C(=O)N[C@@H]1C(=O)NCC(=O)N[C@@H](CCCNC(=O)C(N)Cc2c[nH]c3ccc(OC)cc23)C(=O)N[C@@H](CC(=O)O)C(=O)N[C@H](C)C(=O)N[C@@H](CC(=O)O)C(=O)NCC(=O)N[C@H](CO)C(=O)N[C@@H]([C@H](C)CC(=O)O)C(=O)N[C@@H](CC(=O)c2ccccc2N)C(=O)O[C@@H]1C (some centres undefined),MIC,Enterococcus faecium,12.5 µg/mL
same,MIC,Enterococcus faecalis,25 µg/mL
same,MIC,Staphylococcus aureus [1],1.56 µg/mL
same,MIC,Staphylococcus aureus [2],1.56 µg/mL
CCCCCCCCCC(=O)N[C@@H](Cc1c[nH]c2ccccc12)C(=O)N[C@H](CC(N)=O)C(=O)N[C@@H](CCO)C(=O)N[C@@H]1C(=O)NCC(=O)N[C@@H](CCCNC(=O)C(N)Cc2c[nH]c3ccc(F)cc23)C(=O)N[C@@H](CC(=O)O)C(=O)N[C@H](C)C(=O)N[C@@H](CC(=O)O)C(=O)NCC(=O)N[C@H](CO)C(=O)N[C@@H]([C@H](C)CC(=O)O)C(=O)N[C@@H](CC(=O)c2ccccc2N)C(=O)O[C@@H]1C (some centres undefined),MIC,Enterococcus faecium,3.1 µg/mL
same,MIC,Enterococcus faecalis,1.56 µg/mL
same,MIC,Staphylococcus aureus [1],1.56 µg/mL
same,MIC,Staphylococcus aureus [2],1.56 µg/mL
CCCCCCCCCC(=O)N[C@@H](Cc1c[nH]c2ccccc12)C(=O)N[C@H](CC(N)=O)C(=O)N[C@@H](CC(=O)O)C(=O)N[C@@H]1C(=O)NCC(=O)N[C@@H](CCCNC(=O)c2ccccc2N)C(=O)N[C@@H](CC(=O)O)C(=O)N[C@H](C)C(=O)N[C@@H](CC(=O)O)C(=O)NCC(=O)N[C@H](CO)C(=O)N[C@@H]([C@H](C)CC(=O)O)C(=O)N[C@@H](CC(=O)c2ccccc2N)C(=O)O[C@@H]1C,MIC,Enterococcus faecium,6.25 µg/mL
same,MIC,Enterococcus faecalis,12.5 µg/mL
same,ED50,Mus musculus,1.1 mg/kg
same,MIC,Staphylococcus aureus [1],1.56 µg/mL
same,MIC,Staphylococcus aureus [2],0.78 µg/mL
CCCCCCCCCC(=O)N[C@@H](Cc1c[nH]c2ccccc12)C(=O)N[C@H](CC(N)=O)C(=O)N[C@@H](CC(=O)O)C(=O)N[C@@H]1C(=O)NCC(=O)N[C@@H](CCCNC(=O)C(C)CC(=O)c2ccccc2N)C(=O)N[C@@H](CC(=O)O)C(=O)N[C@H](C)C(=O)N[C@@H](CC(=O)O)C(=O)NCC(=O)N[C@H](CO)C(=O)N[C@@H]([C@H](C)CC(=O)O)C(=O)N[C@@H](CC(=O)c2ccccc2N)C(=O)O[C@@H]1C (some centres undefined),MIC,Enterococcus faecium,6.25 µg/mL
same,MIC,Enterococcus faecalis,12.5 µg/mL
same,MIC,Staphylococcus aureus [1],1.56 µg/mL
same,MIC,Staphylococcus aureus [2],1.56 µg/mL
CCCCCCCCCC(=O)N[C@@H](Cc1c[nH]c2ccccc12)C(=O)N[C@H](CC(N)=O)C(=O)N[C@@H](CC(=O)O)C(=O)N[C@@H]1C(=O)NCC(=O)N[C@@H](CCCNC(=O)CCc2c[nH]c3ccccc23)C(=O)N[C@@H](CC(=O)O)C(=O)N[C@H](C)C(=O)N[C@@H](CC(=O)O)C(=O)NCC(=O)N[C@H](CO)C(=O)N[C@@H]([C@H](C)CC(=O)O)C(=O)N[C@@H](CC(=O)c2ccccc2N)C(=O)O[C@@H]1C,MIC,Enterococcus faecium,12.5 µg/mL
same,MIC,Enterococcus faecalis,25 µg/mL
same,MIC,Staphylococcus aureus [1],1.56 µg/mL
same,MIC,Staphylococcus aureus [2],1.56 µg/mL
CCCCCCCCCC(=O)N[C@@H](Cc1c[nH]c2ccccc12)C(=O)N[C@H](CC(N)=O)C(=O)N[C@@H](CC(=O)O)C(=O)N[C@@H]1C(=O)NCC(=O)N[C@@H](CCCNC(=O)c2cc(C(=O)O)ccc2N)C(=O)N[C@@H](CC(=O)O)C(=O)N[C@H](C)C(=O)N[C@@H](CC(=O)O)C(=O)NCC(=O)N[C@H](CO)C(=O)N[C@@H]([C@H](C)CC(=O)O)C(=O)N[C@@H](CC(=O)c2ccccc2N)C(=O)O[C@@H]1C,MIC,Enterococcus faecium,10 µg/mL
same,MIC,Enterococcus faecalis,12.5 µg/mL
same,MIC,Staphylococcus aureus [1],3.1 µg/mL
same,MIC,Staphylococcus aureus [2],1.25 µg/mL
CCCCCCCCCC(=O)N[C@@H](Cc1c[nH]c2ccccc12)C(=O)N[C@H](CC(N)=O)C(=O)N[C@@H](CC(=O)O)C(=O)N[C@@H]1C(=O)NCC(=O)N[C@@H](CCCNC(=O)c2cc(OC)ccc2N)C(=O)N[C@@H](CC(=O)O)C(=O)N[C@H](C)C(=O)N[C@@H](CC(=O)O)C(=O)NCC(=O)N[C@H](CO)C(=O)N[C@@H]([C@H](C)CC(=O)O)C(=O)N[C@@H](CC(=O)c2ccccc2N)C(=O)O[C@@H]1C,MIC,Enterococcus faecium,10 µg/mL
same,MIC,Enterococcus faecalis,10 µg/mL
same,MIC,Staphylococcus aureus [2],2.5 µg/mL
CCCCCCCCCC(=O)N[C@@H](Cc1c[nH]c2ccccc12)C(=O)N[C@H](CC(N)=O)C(=O)N[C@@H](CC(=O)O)C(=O)N[C@@H]1C(=O)NCC(=O)N[C@@H](CCCNC(=O)[C@@H](N)CCCCN)C(=O)N[C@@H](CC(=O)O)C(=O)N[C@H](C)C(=O)N[C@@H](CC(=O)O)C(=O)NCC(=O)N[C@H](CO)C(=O)N[C@@H]([C@H](C)CC(=O)O)C(=O)N[C@@H](CC(=O)c2ccccc2N)C(=O)O[C@@H]1C,MIC,Enterococcus faecalis,6.25 µg/mL
same,ED50,Mus musculus,1.1 mg/kg
same,MIC,Staphylococcus aureus [1],0.78 µg/mL
same,MIC,Staphylococcus aureus [2],1.56 µg/mL
CCCCCCCCCC(=O)N[C@@H](Cc1c[nH]c2ccccc12)C(=O)N[C@H](CC(N)=O)C(=O)N[C@@H](CC(=O)O)C(=O)N[C@@H]1C(=O)NCC(=O)N[C@@H](CCCNC(=O)c2ccccc2OC)C(=O)N[C@@H](CC(=O)O)C(=O)N[C@H](C)C(=O)N[C@@H](CC(=O)O)C(=O)NCC(=O)N[C@H](CO)C(=O)N[C@@H]([C@H](C)CC(=O)O)C(=O)N[C@@H](CC(=O)c2ccccc2N)C(=O)O[C@@H]1C,MIC,Enterococcus faecium,6.25 µg/mL
same,MIC,Enterococcus faecalis,25 µg/mL
same,MIC,Staphylococcus aureus [1],3.1 µg/mL
same,MIC,Staphylococcus aureus [2],1.25 µg/mL
CCCCCCCCCC(=O)N[C@@H](Cc1c[nH]c2ccccc12)C(=O)N[C@H](CC(N)=O)C(=O)N[C@@H](CCO)C(=O)N[C@@H]1C(=O)NCC(=O)N[C@@H](CCCNC(=O)c2c(N)cccc2F)C(=O)N[C@@H](CC(=O)O)C(=O)N[C@H](C)C(=O)N[C@@H](CC(=O)O)C(=O)NCC(=O)N[C@H](CO)C(=O)N[C@@H]([C@H](C)CC(=O)O)C(=O)N[C@@H](CC(=O)c2ccccc2N)C(=O)O[C@@H]1C,MIC,Enterococcus faecium,3.1 µg/mL
same,MIC,Enterococcus faecalis,3.1 µg/mL
same,MIC,Staphylococcus aureus [1],0.78 µg/mL
same,MIC,Staphylococcus aureus [2],0.78 µg/mL
CCCCCCCCCC(=O)N[C@@H](Cc1c[nH]c2ccccc12)C(=O)N[C@H](CC(N)=O)C(=O)N[C@@H](CCO)C(=O)N[C@@H]1C(=O)NCC(=O)N[C@@H](CCCNC(=O)c2ccccc2)C(=O)N[C@@H](CC(=O)O)C(=O)N[C@H](C)C(=O)N[C@@H](CC(=O)O)C(=O)NCC(=O)N[C@H](CO)C(=O)N[C@@H]([C@H](C)CC(=O)O)C(=O)N[C@@H](CC(=O)c2ccccc2N)C(=O)O[C@@H]1C,MIC,Enterococcus faecium,25 µg/mL
same,MIC,Enterococcus faecalis,25 µg/mL
same,MIC,Staphylococcus aureus [1],12.5 µg/mL
same,MIC,Staphylococcus aureus [2],6.25 µg/mL
CCCCCCCCCC(=O)N[C@@H](Cc1c[nH]c2ccccc12)C(=O)N[C@H](CC(N)=O)C(=O)N[C@@H](CC(=O)O)C(=O)N[C@@H]1C(=O)NCC(=O)N[C@@H](CCCNC(=O)c2ccccc2I)C(=O)N[C@@H](CC(=O)O)C(=O)N[C@H](C)C(=O)N[C@@H](CC(=O)O)C(=O)NCC(=O)N[C@H](CO)C(=O)N[C@@H]([C@H](C)CC(=O)O)C(=O)N[C@@H](CC(=O)c2ccccc2N)C(=O)O[C@@H]1C,MIC,Enterococcus faecium,3.1 µg/mL
same,MIC,Enterococcus faecalis,12.5 µg/mL
same,MIC,Staphylococcus aureus [1],1.56 µg/mL
same,MIC,Staphylococcus aureus [2],1.56 µg/mL
CCCCCCCCCC(=O)N[C@@H](Cc1c[nH]c2ccccc12)C(=O)N[C@H](CC(N)=O)C(=O)N[C@@H](CC(=O)O)C(=O)N[C@@H]1C(=O)NCC(=O)N[C@@H](CCCNC(=O)c2ccccc2SC)C(=O)N[C@@H](CC(=O)O)C(=O)N[C@H](C)C(=O)N[C@@H](CC(=O)O)C(=O)NCC(=O)N[C@H](CO)C(=O)N[C@@H]([C@H](C)CC(=O)O)C(=O)N[C@@H](CC(=O)c2ccccc2N)C(=O)O[C@@H]1C,MIC,Enterococcus faecium,6.25 µg/mL
same,MIC,Enterococcus faecalis,25 µg/mL
same,MIC,Staphylococcus aureus [1],1.56 µg/mL
same,MIC,Staphylococcus aureus [2],3.1 µg/mL
